Results reported in patent US20180338955A1, “METHODS FOR REGULATION AND TREATMENT OF GLIOMA CELL MIGRATION AND GLIOBLASTOMA” (priority 2015, published 2018).
“Also recorded” adds a separate entry of the source.

How the values were obtained:
[1] = system: glioma xenografts; settings: in vivo; cited from earlier work
[2] = system: U87 glioma cells; settings: U87 glioma cells cultured on tenascin and vitronectin; cited from earlier work
[3] = system: human GSCs; assay: Migration of human GSCs on purified DRG axon cultures; type: cell-based; settings: purified DRG axons, 72 hours
Description: To assess the effect of the Lck inhibitor on migrating glioma cells, GBM spheres were seeded on rat DRG cultures in Supplemented NB-A Medium containing 10% FBS. Spheres were allowed to attach for one hour. Cultures were treated with 500 nM of Lck inhibitor or DMSO vehicle for 72 hours. Samples were fixed in 4% formaldehyde for 10 minutes, permeabilized and blocked with 5% normal goat serum containing 0.3% Triton X-100 in 1×PBS (Sigma) at RT for 1 hour. The samples were stained overnight at 4° C. with Ki67 (Cell Signaling), GFAP (DAKO) and NF (EnCor Biotechnology). Area of glioma stem cell migration for each sample was calculated by normalizing the total area of migration to the interior area of the non-migrating sphere mass. Differences between groups were then confirmed using Student's test.

[4] = target: T1, Fyn (Homo sapiens, UniProt P06241); settings: cited from earlier work
Target sequence in this assay (P06241 whole entry, species assumed): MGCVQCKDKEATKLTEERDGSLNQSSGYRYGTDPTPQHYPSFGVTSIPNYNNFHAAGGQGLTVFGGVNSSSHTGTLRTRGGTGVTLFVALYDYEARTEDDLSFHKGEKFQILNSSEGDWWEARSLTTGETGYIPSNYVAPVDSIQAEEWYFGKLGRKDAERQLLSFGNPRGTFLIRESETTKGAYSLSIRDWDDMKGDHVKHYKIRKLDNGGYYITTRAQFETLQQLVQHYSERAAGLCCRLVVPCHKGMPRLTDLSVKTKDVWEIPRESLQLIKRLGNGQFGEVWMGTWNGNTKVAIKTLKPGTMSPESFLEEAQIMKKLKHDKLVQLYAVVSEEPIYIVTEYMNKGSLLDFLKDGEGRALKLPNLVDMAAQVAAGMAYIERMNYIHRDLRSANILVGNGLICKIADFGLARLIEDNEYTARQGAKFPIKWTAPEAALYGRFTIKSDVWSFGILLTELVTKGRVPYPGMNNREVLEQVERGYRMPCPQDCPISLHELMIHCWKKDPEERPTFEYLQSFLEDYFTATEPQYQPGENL

[5] = target: T2, Lyn (Homo sapiens, UniProt P07948); settings: cited from earlier work
Target sequence in this assay (P07948 whole entry, species assumed): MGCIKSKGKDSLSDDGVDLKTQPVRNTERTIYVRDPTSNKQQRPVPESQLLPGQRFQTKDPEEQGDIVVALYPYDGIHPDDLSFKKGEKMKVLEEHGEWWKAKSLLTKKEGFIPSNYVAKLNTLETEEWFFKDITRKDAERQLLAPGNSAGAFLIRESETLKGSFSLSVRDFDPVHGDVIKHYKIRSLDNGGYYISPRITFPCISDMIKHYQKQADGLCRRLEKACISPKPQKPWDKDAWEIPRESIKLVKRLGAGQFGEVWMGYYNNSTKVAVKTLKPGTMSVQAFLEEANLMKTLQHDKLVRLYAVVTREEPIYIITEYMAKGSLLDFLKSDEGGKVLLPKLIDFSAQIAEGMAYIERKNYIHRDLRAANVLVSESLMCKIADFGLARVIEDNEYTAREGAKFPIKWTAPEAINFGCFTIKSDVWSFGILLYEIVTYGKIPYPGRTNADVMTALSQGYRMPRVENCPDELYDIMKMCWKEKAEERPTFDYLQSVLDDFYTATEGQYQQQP

[6] = system: human GSCs; assay: Migration of human GSCs along parallel DRG axonal bundles (coverslips with parallel scratches); type: cell-based; settings: human GSC-DRG axon co-cultures, versus DMSO control
Description: As inhibition of Lck signalling has a dramatic effect on pseudopodia extension and retraction, Applicants investigated whether Lck may also function to regulate the migration and invasion of human GSCs. […] To assess the effect of Lck signaling on the migration and interaction of hGSCs with DRG axons, Applicants seeded hGSCs on DRG axons and treated the cultures with Lck-I or PBS/DMSO for 72 hours. […] To quantify the effect of Lck inhibition on GSC migration, Applicants added GSCs on DRG axons with and without Lck-I and quantified the surface area covered by the migrating glioma cells using Image-J.

[7] = system: phospho(Y221)-CrkII; assay: Western blot of hGSC lysates for phospho(Y221)-CrkII; type: cell-based, human; settings: hGSCs (GSC1, GSC2) on fibronectin, 500 nM, 2 hours
Excerpt: (§1) For total cell lysates, cultures were lysed in 1×SDS lysis buffer supplemented with protease and phosphatase inhibitors (Sigma). Lysates were sonicated and cleared by centrifugation. Samples were separated on 4-12% Bis-Tris SDS-PAGE gels (NuPAGE), transferred on to nitrocellulose and immunoblotted using the following primary antibodies: p(Y418)-Src family, Lck (D88), […], pCrkII (Cell Signaling), mortalin (a kind gift of Dr. Alice Cavanaugh), and β-actin (Sigma). A custom phospho-specific polyclonal antibody was generated against p(Y394)-Lck and affinity-purified against total Lck, Fyn and Lyn (Thermo Fisher). Secondary antibodies used were HRP-conjugate goat anti-mouse and goat anti-rabbit (Cell Signaling). Semi-quantitative analysis was conducted with FluorChem SP analytical software. Statistical significance was determined by the two-tailed Student's t-test.

[8] = system: phospho(Y118)-paxillin; assay: Immunocytochemistry of phospho(Y118)-paxillin in human GSCs; type: cell-based; settings: 500 nM, 2 hours, versus control
Description: (§2) To assess pseudopodia formation, GBM stem cells were seeded on fibronectin coated (10 ug/ml, Sigma) glass chamber slides (NUNC) in the presence of serum for 2.5 hours. Cultures were treated with 500 nM of Lck inhibitor or DMSO vehicle for 2 hours and then fixed in 4% formaldehyde. Samples were permeabilized and blocked with 5% normal goat serum containing 0.3% Triton X-100 in 1×PBS (Sigma) at RT for 1 hour. The samples were stained overnight at 4° C. with Phospho-Paxillin (CellSignaling). The following day, secondary antibodies were applied at manufacturer recommended dilutions for 1 hour at RT (Jackson ImmunoResearch). Samples were subsequently stained with Rhodamine RedX Phalloidin (Life Technologies) and Hoescht 33342 (Life Technologies) following manufacturer's protocols. Slides were mounted with Aqua Poly/Mount (Polysciences) and imaged using a Zeiss confocal microscope. Adobe Photoshop was used to count the total number of pseudopodia, which included both axial and radial projections, per cell for each group. Differences between groups were confirmed using Student's t-test.

[9] = system: phospho(Y118)-paxillin; assay: Western blot of hGSC lysates for phospho(Y118)-paxillin; type: cell-based, human; settings: hGSCs (GSC1, GSC2) on fibronectin, 500 nM, 2 hours
Excerpt: as §1

[10] = system: human glioblastoma (hGSCs); assay: Orthotopic xenograft mouse model of human glioblastoma; type: in vivo, Nu/J mice
Description: To determine the effect of inhibition of Lck signaling in human glioma formation in vivo, Applicants used an orthotopic xenograft mouse model of human glioblastoma (Singh et al., 2004; Valadez et al., 2014). Applicants injected under stereotactic guidance 200,000 hGSCs at coordinates −2.0 mm AP and +1.5 mm ML relative to Bregma. The Lck-I or the PBS/DMSO were administered through an Alzet pump in the lateral ventricle continuously for 4 weeks. Brains were formalin fixed and stained for human Ki67 4 weeks after the implantation.
Intracranial injections were performed using a stereotaxic apparatus (Kopf) on 8-week-old Nu/J mice initially sedated with 4% isoflurane and maintained with 2% isoflurane. After leveling the skull, a hole was drilled with a #72 micro drill bit (Kyocera) at coordinates −2.0 mm AP and +1.5 mm ML relative to Bregma. A 75 RN Hamilton syringe was then lowered to a depth of −2.5 mm DV at a rate of 0.5 mm per minute, and 200,000 primary GSCs from donor 2 resuspended in a total volume of 4 μl were injected at a rate of 0.5 μl per minute using a Stoelting Quintessiential Stereotaxic Injector. In order to reduce backflow, the syringe was allowed to rest for 2 minutes post-injection before it was withdrawn at a rate of 0.5 mm per minute, and the cavity was immediately sealed with bone wax (Ethicon). A subcutaneous pocket was formed, and an Alzet osmotic pump 1004 fitted with brain infusion kit 3 and containing either 1.175 mg of A77 (Axon Medchem) or DMSO/Kolliphor ELP vehicle was inserted near the left hind limb of the animal. A second hole was drilled at coordinates of +0.5 mm and +1.1 mm ML relative to Bregma with the same micro drill bit to allow placement of the brain infusion catheter in the right lateral ventricle. The brain infusion catheter was lowered into the brain and glued to the skull using Loctite 454 cyanoacrylate adhesive. The incision was sealed using veterinary tissue glue and a dab of antibiotic ointment was placed over the head and neck. Animals were monitored daily for weight loss, pain and distress. After four weeks, animals were euthanized with pentobarbital and perfused with 4% formaldehyde. Brains were harvested, post-fixed in 4% formaldehyde, and processed for paraffin embedding. Paraffin embedded tissue was sliced on a microtome to […] sections and placed on microscope slides. Tissues were stained for H&E and ki67 (Roche) using a Ventana Autostainer. Images were captured using a Zeiss Axiovert inverted microscope.

[11] = system: human GSCs; assay: xCELLigence impedance assay of cell spreading/migration; type: cell-based; settings: 500 nM, versus DMSO
Description: The xCELLigence system was used to perform cell migration assays on the RTCA DP instrument. Electrical impedance due to cell migration is represented as cell index. GBM cells were seeded on fibronectin coated wells of the RTCA CIM-plate 16 (ACEA Biosciences) and allowed to attach and spread for 1 hour at room temperature. After 1 hour, wells were treated with DMSO vehicle or 500 nM Lck inhibitor. As cells migrated towards the lower chamber containing 10% FBS with DMSO vehicle or 500 nM Lck inhbitor, measurements were captured every 5 minutes. Cell index data was plotted overtime and the slope between 2 and 6 hours was calculated.

[12] = target: T1, Fyn; assay: Immunoprecipitation/Western blot, phosphorylation state of Fyn; type: cell-based; settings: human glioma cells, 500 nm
Description: (§3) For immunoprecipitation studies, U87 MG cells treated with A77 or DMSO vehicle were lysed in 1×RIPA buffer containing protease and phosphatase inhibitors (Sigma). Lysates were cleared via centrifugation and were pre-cleared with TrueBlot anti-rabbit IgG beads (eBiosience) to remove non-specific binding. Primary antibodies against Lck, Src, Fyn, Lyn or Yes (Cell Signaling) were added and the lysates were incubated overnight at 4° C. with gentle rotation. The following day, TrueBlot anti-rabbit IgG (eBioscience) beads were added to the lysate and incubated at 4° C. for 2 hours. Immunoprecipitates were washed, solubilized in 2×Laemmli buffer and boiled for 5 minutes. The supernatants were separated on an 8% Bis-Tris SDS-PAGE gel, transferred to nitrocellulose and immunoblotted.
Target sequence in this assay (P06241 whole entry): as the sequence (P06241 whole entry, species assumed) above

[13] = target: T3, phospho(Y394)-Lck (Homo sapiens, UniProt P06239); assay: Western blot of hGSC lysates for phospho(Y394)-Lck; type: cell-based; settings: hGSCs (GSC1, GSC2) on fibronectin, 500 nM, 2 hours
T3 construct: hGSCs isolated from two patients with glioblastomas (GSC1 and GSC2) left untreated or treated with 500 nM Lck-I for 2 hours; endogenous in cells; host or cells: primary human glioma stem cells (GSC1, GSC2) from two glioblastoma patients
Description: For total cell lysates, cultures were lysed in 1×SDS lysis buffer supplemented with protease and phosphatase inhibitors (Sigma). Lysates were sonicated and cleared by centrifugation. […] A custom phospho-specific polyclonal antibody was generated against p([MUT])-Lck and affinity-purified against total Lck, Fyn and Lyn (Thermo Fisher). Secondary antibodies used were HRP-conjugate goat anti-mouse and goat anti-rabbit (Cell Signaling). Semi-quantitative analysis was conducted with FluorChem SP analytical software. Statistical significance was determined by the two-tailed Student's t-test.

[14] = target: T2, Lyn; assay: Immunoprecipitation/Western blot, phosphorylation state of Lyn; type: cell-based; settings: human glioma cells, 500 nm
Description: as §3
Target sequence in this assay (P07948 whole entry): as the sequence (P07948 whole entry, species assumed) above

[15] = system: human GSCs; assay: Invasion in Alvetex scaffold; type: cell-based; settings: 500 nM, 72 hours, versus untreated
Description: Alvetex scaffolds were coated with fibronectin (10 μg/ml) for 2 hours at 37° C. 750,000 GBM cells were plated in the center of each scaffold and allowed to attach for one hour. Cultures were grown in Supplemented NB-A Medium containing 10% FBS. Cultures were treated with 500 nM of Lck inhibitor or DMSO vehicle for 72 hours. Samples were fixed in 4% formaldehyde for 10 minutes, permeabilized with 0.1% Triton X-100 and blocked with 1% BSA-PBS for 30 minutes at room temperature. Samples were subsequently stained with Rhodamine RedX Phalloidin (Life Technologies) and Hoescht 33342 (Life Technologies) following manufacturer's protocols. Slides were mounted with Aqua Poly/Mount (Polysciences) and imaged using a Zeiss confocal microscope.

[16] = system: human GSCs; assay: Pseudopodia (lamellipodia) formation of human GSCs on fibronectin; type: cell-based; settings: fibronectin substrate, 500 nM, 2 hours, versus untreated/DMSO
Description: as §2

[17] = continuous infusion in the lateral ventricle for 4 weeks, n=5

T3 sequence (P06239 whole entry): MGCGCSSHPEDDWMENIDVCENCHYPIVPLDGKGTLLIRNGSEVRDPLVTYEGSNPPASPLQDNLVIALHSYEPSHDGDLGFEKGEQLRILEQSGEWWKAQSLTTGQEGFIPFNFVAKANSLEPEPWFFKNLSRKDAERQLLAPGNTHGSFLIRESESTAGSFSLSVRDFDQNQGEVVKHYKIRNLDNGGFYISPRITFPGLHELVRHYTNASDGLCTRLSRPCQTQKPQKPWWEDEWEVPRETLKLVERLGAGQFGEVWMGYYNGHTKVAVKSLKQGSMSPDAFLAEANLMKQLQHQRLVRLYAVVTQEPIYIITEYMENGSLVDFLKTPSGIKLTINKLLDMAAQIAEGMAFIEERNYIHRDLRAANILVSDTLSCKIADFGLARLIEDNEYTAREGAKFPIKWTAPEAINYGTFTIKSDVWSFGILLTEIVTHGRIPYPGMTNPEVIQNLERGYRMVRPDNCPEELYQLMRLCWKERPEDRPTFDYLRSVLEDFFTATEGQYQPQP

For `CC(C)[C@H]1C(=O)N[C@@H](CCCN=C(N)N)C(=O)NCC(=O)N[C@@H](CC(=O)O)C(=O)N[C@H](Cc2ccccc2)C(=O)N1C` [EMD121974, Cilengitide], the “effect on glioma xenografts” value [1] is listed as “significant regression” and the apoptosis [2] is listed as “induces apoptosis”.
In the case of `COc1cc(-c2nn([C@H]3CC[C@H](N4CCN(C(C)=O)CC4)CC3)c3ncnc(N)c23)ccc1NC(=O)c1cc2ccccc2n1C` [Lck-I, A770041], the “total area of migration (surface area covered by migrating glioma cells)” value ([3]; 500 nM) is reported as “significant reduction”, the “integration of tumor cells within the axonal network” value ([3]; n=6) is reported as “almost complete lack of integration; also recorded: limited integration and expansion” and the “migration of individual glioma cells (GFAP+/Ki67+ migrating tumor cells)” value ([3]; versus control) is reported as “inhibition of migration; also recorded: significant decrease”. For the same compound, the “specificity for Lck over Fyn” value [4] was 300 fold, the “specificity for Lck over Lyn” value [5] was 8 fold and the “migration along parallel axonal bundles (finger-like projections)” value [6] was “complete inhibition of migration; also recorded: complete ablation of the finger-like projections”. For the same compound, the “phosphorylation level of CrkII, phospho(Y221)-CrkII” value [7] was “significantly reduced; also recorded: significant reduction”, the “phospho-paxillin(Y118) staining at focal adhesions” value [8] was “reduced; also recorded: almost complete absence” and the “phosphorylation level of paxillin, phospho(Y118)-paxillin” value [9] was “significantly reduced; also recorded: significant reduction”. For the same compound, the body condition score ([10]; all treated animals, 4 weeks) was “excellent”, the “side effects of local administration” value ([10]; continuous infusion in the lateral ventricle for 4 weeks) was “no apparent side effects” and the “invasion/migration of human glioma cells within the brain parenchyma” value [10, 17] was “minimal invasion/integration; also recorded: significant inhibition of tumor migration and invasion; also recorded: minimal invasion and migration”. The tissue necrosis [10, 17] was “absence of tissue necrosis; also recorded: lack of focal necrosis”, the tumor formation ([10]; continuous infusion in the lateral ventricle for 4 weeks, versus PBS/DMSO, n=5) was “complete lack of solid tumor formation; also recorded: significant inhibition of tumor formation” and the “human GSC migration (surface area by electrical impedance)” value [11] was “significant reduction”. For the same compound, the “cell spreading (cell processes) after addition” value ([11]; fibronectin-coated plate) was “immediate retraction of cell processes”, the “phosphorylation state of Fyn” value [12] was “does not affect; also recorded: no effect” and the “phosphorylation level of Lck, phospho(Y394)-Lck” value [13] was “significantly reduced; also recorded: significant reduction”. For the same compound, the “phosphorylation state of Lyn” value [14] was “does not affect; also recorded: no effect”, the “invasion (depth/total area of invasion within scaffold, z-stack confocal)” value [15] was “significant inhibition; also recorded: significant reduction” and the “number of pseudopodia (lamellipodia) per cell” value [16] was “significantly reduced; also recorded: significantly lower”.
